Substitutions are numbered along the chain they refer to.
Legend:
HL-60 cells [1] = experiment: Caspase 3 inhibitor pre-incubation before VP16, Western analysis of Mst1 cleavage and H2B Ser14 phosphorylation; assay type: cell-based, human; conditions: then VP16 for 4 hours
Experimental: (§1) Western blot analysis is performed as described in (Briggs et al., (2001) Genes Dev 15, 3286-3295) 1:1000 of α-phos (S14) H2B, 1:2500 of α-N-Mst1, 1:400 of α-myc (9E10 from Santa Cruz), 1:800 of α-PARP (UBI), 1:1000 of α-phos H2A.X (UBI), and 1:5000 of ax-Acetyl H4 primary antibodies were used. HRP-conjugated rabbit secondary (Amersham Pharmacia) was used at 1:5000. For chemiluminescence, the ECL plus kit (Amersham Pharmacia) was used for detection.
If H2B (Ser14) phosphorylation is dependent on the cleavage of Mst1, this histone modification should be sensitive to documented caspase 3 inhibitors such as the DEVD peptide. To test this prediction, HL-60 cells were pre-incubated with varying amounts of z-DEVD-fmk (Trevigen) before subsequent treatment with VP16 for 4 hours. Cell extracts were then harvested for western analysis. […] Accordingly, H2B is likely phosphorylated in vivo at Ser14 by the caspase 3-generated form of Mst1.

HepG2 = experiment: Western blot for H2B S14 phosphorylation after cytotoxic agent treatment; assay type: cell-based
Experimental: (§2) Cell culture, drug and UV treatment, and harvesting for protein and DNA: HL-60 cells were cultured in RPMI with 10% FBS whereas 293T, HeLa, HepG2, and IMR90 were grown in DMEM with 10% FBS. Etoposide, anisomycin, […] and anti-Fas were purchased from Sigma. To induce apoptosis, drugs were used in these concentration 20 ug/mL for etoposide, 25 ng/mL anisomycin and 15 ng/mL anti-Fas. For UV induction of apoptosis, 40-100 J/m^2 was used (Biorad GS Gene Linker UV chamber). After induction of apoptosis the growth media was changed and harvested at various times afterward. Control cells were either treated with DMSO or mock-treated.
After the desired treatment, cells were subjected to any of the following: resuspension in SDS-lysis buffer (Laemmli's sample buffer), nuclear extraction, acid extraction for histones, or genomic DNA extraction. Nuclei were isolated by lysis in detergent and low speed spin as described in Strahl et al., (2001) Curr Biol 11, 996-1000. These nuclei can either be salt extracted for nuclear proteins (see below) or acid extracted in 0.4 N H2SO4. After incubating on ice for 2-4 hours, high speed centrifugation is done to remove the insoluble pellet. […]
(§3) After Cytotoxic agent treatments, cells were harvested. The level of H2B S14 phosphorylation is determined by Western blots using ePhos (S14) H2B.

HL-60 cells [2] = experiment: Western blots of histones from HL-60 cells after cytotoxic agent treatment; assay type: cell-based, human; conditions: for Levels of H2B S14 Phons Induction: etoposide 20 ug/mL, anisomycin 25 ng/mL, anti-Fas 15 ng/mL
Experimental: as §2
After the desired treatment, cells were subjected to any of the following: resuspension in SDS-lysis buffer (Laemmli's sample buffer), nuclear extraction, acid extraction for histones, or genomic DNA extraction. Nuclei were isolated by lysis in detergent and low speed spin as described in Strahl et al., (2001) Curr Biol 11, 996-1000. These nuclei can either be salt extracted for nuclear proteins (see below) or acid extracted in 0.4 N H2SO4. After incubating on ice for 2-4 hours, high speed centrifugation is done to remove the insoluble pellet. 5.4% of Percholic acid was added to the supernatant and the precipitated histones were resuspended in water.
as §1
(§4) Initially, HL-60 (human leukemia cell line) cells were treated with etoposide (VP-16) to induce apoptosis. After treatment for various length of time, histones were isolated by acid extraction and examined by Western blot using the S14P antibody. […] To confirm the induction of apoptosis, soluble DNA was extracted from parallel samples at identical time points. The appearance of a ‘DNA ladder’, indicative of apoptotic DNA fragmentation at 4 hour post treatment, coincides precisely with the onset of H2B Ser14 phosphorylation. Furthermore, an increase of H2B S14 phosphorylation was observed that correlates with the exposure time to the etoposide.
as §3

HL-60 cells [3] = experiment: Apoptotic DNA fragmentation (DNA ladder) after VP-16 treatment; assay type: cell-based, human
Experimental: Genomic DNA was harvested by lysing the cell pellet in 10 mM Tris pH 9.0, 1 mM EDTA, 10 mM NaCl, 1% w/v SDS, 1 mg/mL of proteinase K at 50° C. for 4-5 hours. To remove proteins, a phenol/chloroform extraction was performed and then the DNA was precipitated in 0.3 M sodium acetate and 70% Ethanol. After centrifugation, the pellet was resuspended in TE and the RNA was digested by adding 1 mg/mL Rnase A for 1 hour at room temp. DNA was separated in 1.2% agarose TAE gel.
as §4

[4] = target: histone H2B (substrate of the in vitro kinase reactions)

z-DEVD-fmk
H2B phosphorylation (HL-60 cells [1]; 20 mM inhibitor): only a modest decrease | Proportion of truncated Mst1 over full length Mst1 (HL-60 cells [1]; 20 mM inhibitor): only a modest decrease | H2B Ser14 phosphorylation (HL-60 cells [1]; 200 mM inhibitor): inhibited | Mst1 cleavage (HL-60 cells [1]; 200 mM inhibitor): inhibited

COS(C)(=O)=O [MMS]
Levels of H2B S14 Phons Induction (HepG2): Medium

COc1cc([C@@H]2c3cc4c(cc3[C@@H](O[C@@H]3O[C@@H]5CO[C@@H](C)O[C@H]5[C@H](O)[C@H]3O)[C@H]3COC(=O)[C@H]23)OCO4)cc(OC)c1O [Etoposide (VP16), Etoposide]
Time of H2A.X phosphorylation after treatment (HL-60 cells [2]; Western blot): one | Time post treatment at which H2B phosphorylation signal is strongly enhanced (HL-60 cells [2]; Western blot with S14P antibody): around 4 hours | Levels of H2B S14 Phons Induction (HL-60 cells [2]; Western blot): High | Time post treatment of appearance of DNA ladder (apoptotic DNA fragmentation) (HL-60 cells [3]): 4 h

COc1ccc(C[C@H]2NC[C@H](O)[C@H]2OC(C)=O)cc1 [Anisomycin]
Levels of H2B S14 Phons Induction (HL-60 cells [2]; Western blot): High

B1: myc-tagged full length Mst1 (protein)
chain: METVQLRNPPRRQLKKLDEDSLTKQPEEVFDVLEKLGEGSYGSVYKAIHKETGQIVAIKQVPVESDLQEIIKEISIMQQCDSPHVVKYYGSYFKNTDLWIVMEYCGAGSVSDIIRLRNKTLTEDEIATILQSTLKGLEYLHFMRKIHRDIKAGNILLNTEGHAKLADFGVAGQLTDTMAKRNTVIGTPFWMAPEVIQEIGYNCVADIWSLGITAIEMAEGKPPYADIHPMRAIFMIPTNPPPTFRKPELWSDNFTDFVKQCLVKSPEQRATATQLLQHPFVRSAKGVSILRDLINEAMDVKLKRQESQQREVDQDDEENSEEDEMDSGTMVRAVGDEMGTVRVASTMTDGANTMIEHDDTLPSQLGTMVINAEDEEEEGTMKRRDETMQPAKPSFLEYFEQKEKENQINSFGKSVPGPLKNSSDWKIPQDGDYEFLKSWTVEDLQKRLLALDPMMEQEIEEIRQKYQSKRQPILDAIEAKKRRQQNF
IP kinase reaction with non-radioactive ATP, Western blot with the S14P antibody [4]: both Mst1 FL and DC phosphorylate H2B at Ser14 as detected by the S14P antibody | in vitro kinase assay on myc immunoprecipitates, with g(32P)-ATP or cold ATP [4]: Strong phosphorylation of H2B was detected with both full length and DC Mst1

B2: myc-tagged kinase dead Mst1 (protein)
chain: B1 chain with K59R
in vitro kinase assay on myc immunoprecipitates, with g(32P)-ATP or cold ATP [4]: the kinase dead form Mst1 (which contains a single point mutation) did not phosphorylate H2B

B3: myc-tagged C-terminal truncated form of Mst1 (protein)
chain: METVQLRNPPRRQLKKLDEDSLTKQPEEVFDVLEKLGEGSYGSVYKAIHKETGQIVAIKQVPVESDLQEIIKEISIMQQCDSPHVVKYYGSYFKNTDLWIVMEYCGAGSVSDIIRLRNKTLTEDEIATILQSTLKGLEYLHFMRKIHRDIKAGNILLNTEGHAKLADFGVAGQLTDTMAKRNTVIGTPFWMAPEVIQEIGYNCVADIWSLGITAIEMAEGKPPYADIHPMRAIFMIPTNPPPTFRKPELWSDNFTDFVKQCLVKSPEQRATATQLLQHPFVRSAKGVSILRDLINEAMDVKLKRQESQQREVDQDDEENSEEDEMD
IP kinase reaction with non-radioactive ATP, Western blot with the S14P antibody [4]: both Mst1 FL and DC phosphorylate H2B at Ser14 as detected by the S14P antibody | in vitro kinase assay on myc immunoprecipitates, with g(32P)-ATP or cold ATP [4]: Strong phosphorylation of H2B was detected with both full length and DC Mst1
